One assay addresses T1, human 11β-HSD2 (Homo sapiens, UniProt P80365).
T1 construct: CHO cells stably transfected with the full-length gene coding for human 11β-HSD2 were used; expressed in transfected cells; host or cells: CHO
T1 sequence (P80365 1-405): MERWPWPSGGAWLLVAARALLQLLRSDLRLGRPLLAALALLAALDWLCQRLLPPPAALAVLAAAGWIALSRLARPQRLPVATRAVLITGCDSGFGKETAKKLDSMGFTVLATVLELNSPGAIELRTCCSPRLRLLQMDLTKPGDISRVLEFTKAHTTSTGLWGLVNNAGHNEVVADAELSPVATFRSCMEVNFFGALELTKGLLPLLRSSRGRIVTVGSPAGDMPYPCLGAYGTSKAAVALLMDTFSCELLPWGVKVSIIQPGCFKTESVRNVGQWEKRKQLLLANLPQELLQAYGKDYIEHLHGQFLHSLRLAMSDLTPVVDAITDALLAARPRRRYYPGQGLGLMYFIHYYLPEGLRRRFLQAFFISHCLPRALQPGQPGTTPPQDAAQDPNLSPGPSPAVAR
As to the kind of experiment: Cellular in vitro 11β-HSD2 enzyme inhibition assay (CHO cells, TLC/phosphoimager). The following applies: CHO cells stably transfected with human 11β-HSD2; Table 1. The assay is classed as cell-based. As for the experimental part: Cellular In Vitro 11β-HSD2 Enzyme Inhibition Assay
For measurement of inhibition of 11β-HSD2, CHO cells stably transfected with the full-length gene coding for human 11β-HSD2 were used. Assays were carried out in 96-well microplates containing 1×10^5 cells/well. Controls and compounds were plated as above, so that the final DMSO concentration in each well was 1%. To initiate the assay, 90 μL of a solution of HAMS F-12 medium containing 1% glutamine, 1% penicillin and streptomycin, and 22 nM tritiated cortisol was added to each well of the assay plate. The plate was then incubated in 5% CO2, 95% O2 at 37° C. for 16 hours.
The assay solutions were transferred to glass tubes and 20 μL ethyl acetate added to each tube. Each tube was vortexed thoroughly and the upper layer containing the tritiated steroid transferred to a fresh glass tube. The solvent was evaporated by placing the tubes in a heating block at 65° C. under a stream of Nitrogen gas. 20 μL ethanol was added to each of the dried samples and vortexed briefly. Each sample was applied to a silica TLC plate and the plate dried. The plate was placed vertically in a glass tank containing 92% chloroform:8% ethanol and the solvent allowed to rise up the plate. The plate was dried, placed in an imaging cassette, and overlayed with a tritium imaging plate for 1-2 days. The amount of enzyme inhibition in each sample was determined by measuring the intensity of the substrate and product spots using a phosphoimager.
IC50 values for inhibitors were determined as described for 11β-HSD1.

Another assay concerns the target T2, human 11β-HSD1 enzyme (Homo sapiens, UniProt P28845).
T2 construct: stably transfected with a construct containing the full-length gene coding for the human 11β-HSD1 enzyme; expressed in transfected cells; host or cells: HEK293 (HEK293/11β-HSD1 cells)
The assay is described as follows: Cellular in vitro 11β-HSD1 enzyme inhibition assay (SPA, HEK293/11β-HSD1 cells). The assay is classed as cell-based. Put shortly: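 Stably transfected HEK293 cells expressing full-length human 11β-HSD1 were plated 24 h, then incubated with compound 2 h at 37 °C; cortisol formed was quantified by SPA with anti-cortisol antibody. Percent inhibition used no-cell (minimum) and no-compound (maximum) wells; IC50 from four-parameter logistic fit.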

Where [1] appears, read: HEK293, less than or equal to 1000 nM (1 μM).
Where [2] appears, read: HEK293 cells stably transfected with human 11β-HSD1, Table 1.

T2 sequence (P28845 whole entry): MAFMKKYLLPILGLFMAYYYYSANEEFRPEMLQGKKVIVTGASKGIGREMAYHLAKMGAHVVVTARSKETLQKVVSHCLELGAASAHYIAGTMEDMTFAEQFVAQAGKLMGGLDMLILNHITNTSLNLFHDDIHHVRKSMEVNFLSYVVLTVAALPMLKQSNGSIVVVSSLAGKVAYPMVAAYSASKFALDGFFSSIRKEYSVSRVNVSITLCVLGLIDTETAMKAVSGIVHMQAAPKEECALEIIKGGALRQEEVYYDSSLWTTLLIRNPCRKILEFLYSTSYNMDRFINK

With `O=C(c1csc(C2CCCCC2)c1)N1CCCCCC1` [DD-002, Azepan-1-yl-(5-cyclohexyl-thiophen-3-yl)-methanone], the IC50 against human 11β-HSD2 was above 10000 nM; on human 11β-HSD1 enzyme (setting [1]), at most 1000 nM; on human 11β-HSD1 enzyme (setting [2]), 882 nM.

Take `CC1(C)CCCN(C(=O)c2csc(C3CCOCC3)c2)C1` [CC-003]: the IC50 at human 11β-HSD2 was above 10000 nM; at human 11β-HSD1 enzyme (setting [1]), at most 1000 nM; on human 11β-HSD1 enzyme (setting [2]), 150 nM.

Regarding `CNC(=O)N1CCC(c2cc(C(=O)N3CCCC4CCCCC43)cs2)CC1` (centres unmarked) [CC-106], the IC50 on human 11β-HSD2 was above 10000 nM; on human 11β-HSD1 enzyme (setting [1]), at most 1000 nM; at human 11β-HSD1 enzyme (setting [2]), 96 nM.

In the case of `CC1(C)CCCN(C(=O)c2csc(C3CCN(C(=O)NCCO)CC3)c2)CC1` [CC-175], the figures for the IC50 against human 11β-HSD2, on human 11β-HSD1 enzyme (setting [1]) and on human 11β-HSD1 enzyme (setting [2]) were above 10000 nM, at most 1000 nM and 23 nM, respectively.

`COC(=O)N1CCC(c2cc(C(=O)N3CCCCC3c3ccccc3)cs2)CC1` (centres unmarked) [CC-119]: the values for the 50% inhibitory concentration (IC50) against human 11β-HSD2, against human 11β-HSD1 enzyme (setting [1]) and against human 11β-HSD1 enzyme (setting [2]) were above 10000 nM, at most 1000 nM and 61 nM, respectively.

As for `COCc1cc(C(=O)N2CCCC3(CCCCC3)C2)cs1` [BB-007], the IC50 is above 10000 nM on human 11β-HSD2, at most 1000 nM at human 11β-HSD1 enzyme (setting [1]) and 68 nM against human 11β-HSD1 enzyme (setting [2]).

For the compound `CS(=O)(=O)NCCNC(=O)N1CCC(c2cc(C(=O)N3CCCC4CCCCC43)cs2)CC1` (stereo not drawn) [CC-168, cis-4-[4-(Octahydro-quinoline-1-carbonyl)-thiophen-2-yl]-piperidine-1-carboxylic acid(2-methanesulfonylamino-ethyl)-amide], the results for the IC50 against human 11β-HSD2, at human 11β-HSD1 enzyme (setting [1]) and against human 11β-HSD1 enzyme (setting [2]) were above 10000 nM, at most 1000 nM and 77 nM, respectively.

As for `CCc1cc(C(=O)N2CCCCC2)c(Cl)s1` [AA-001, (2-Chloro-5-ethyl-thiophen-3-yl)-piperidin-1-yl-methanone], the half-maximal inhibitory concentration (IC50) was above 10000 nM against human 11β-HSD2, at most 1000 nM against human 11β-HSD1 enzyme (setting [1]) and 281 nM against human 11β-HSD1 enzyme (setting [2]).

With `O=C(c1csc(C2CCNCC2)c1)N1CCC[C@@H]2CCCC[C@@H]21` (single isomer, unassigned) [CC-033, cis-(octahydro-quinolin-1-yl)-(5-piperidin-4-yl-thiophen-3-yl)-methanone], the values for the concentration for half-maximal inhibition (IC50) at human 11β-HSD2 and against human 11β-HSD1 enzyme (setting [2]) were above 10000 nM and 127 nM, respectively.

As for `CC(=O)N1CCC(c2cc(C(=O)N3CCC[C@@H]4CCCC[C@@H]43)cs2)C1` (relative stereo) [CC-111, cis-1-{3-[4-(Octahydro-quinoline-1-carbonyl)-thiophen-2-yl]-pyrrolidin-1-yl}ethanone], the IC50 on human 11β-HSD2 was above 10000 nM; on human 11β-HSD1 enzyme (setting [1]), at most 1000 nM; against human 11β-HSD1 enzyme (setting [2]), 20 nM.

The term IC50 denotes the midpoint of a concentration-inhibition curve. Read a low IC50 as higher potency.

The values above are taken from patent publication US8362008B2 (The University Of Edinburgh, priority 2007, dated 2013).
